According to patent US20180194762A1 (Pharmacyclics LLC, priority 2017, published 2018):
Like-named read-outs stand apart in the source and are kept apart here.

How the values were obtained:
Type in all cases: biochemical
Btk = molecular target: T1, Btk (Homo sapiens, UniProt Q06187); assay: Btk in vitro inhibitory activity (one of Method A TR-FRET, Method B electrophoretic mobility shift, Method C radiometric filter binding)
T1 construct: purified from insect cells as a full-length construct containing a N-terminal 6X-His tag; His6 (N); made in house; host or cells: insect cells (Method C)
Procedure, shortened: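 Three alternative formats were used. A radiometric filter-binding read used 8 nM full-length His-BTK with 0.2 mg/mL poly(Glu-Tyr) 4:1 (C); microfluidic separation of 1 μM FAM-peptide by 1 nM BTK gave IC50 from 12-point curves (B); TR-FRET at Km ATP, 0.5 nM Btk, gave Ki(app)-derived IC50 (A).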

TEC = molecular target: T2, TEC (Homo sapiens, UniProt P42680); assay: Inhibition of a panel of kinases (in vitro HotSpot kinase assay, 33P-ATP, 1 μM ATP); conditions: for IC50: HotSpot kinase assay, 1 μM ATP; for TEC/Btk: ratio of TEC IC50 to Btk IC50 (selectivity)
T2 sequence (P42680 1-631): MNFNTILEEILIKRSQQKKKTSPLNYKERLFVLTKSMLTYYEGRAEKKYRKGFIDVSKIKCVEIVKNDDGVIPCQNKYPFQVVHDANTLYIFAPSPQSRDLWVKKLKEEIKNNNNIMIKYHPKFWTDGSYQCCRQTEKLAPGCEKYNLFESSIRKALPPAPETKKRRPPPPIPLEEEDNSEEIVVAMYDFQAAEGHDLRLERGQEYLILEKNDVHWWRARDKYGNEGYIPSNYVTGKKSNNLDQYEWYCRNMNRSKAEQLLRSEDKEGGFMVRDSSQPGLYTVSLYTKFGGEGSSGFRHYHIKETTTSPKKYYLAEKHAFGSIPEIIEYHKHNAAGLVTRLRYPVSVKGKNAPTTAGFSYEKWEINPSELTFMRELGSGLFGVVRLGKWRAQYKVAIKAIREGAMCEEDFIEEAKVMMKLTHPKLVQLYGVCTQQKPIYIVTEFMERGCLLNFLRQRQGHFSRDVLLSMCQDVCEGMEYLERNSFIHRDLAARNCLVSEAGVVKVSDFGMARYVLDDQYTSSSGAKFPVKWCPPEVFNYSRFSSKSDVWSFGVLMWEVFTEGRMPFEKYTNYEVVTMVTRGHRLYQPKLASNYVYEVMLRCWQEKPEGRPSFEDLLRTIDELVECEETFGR
Procedure, shortened: (§1)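 Radiometric read-out: 33P transfer to a suitable substrate by each purified enzyme, ATP at 1 μM. Values are degree of inhibition.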

panel of kinases = molecular target: T3, panel of kinases (Homo sapiens, UniProt P51813); assay: Inhibition of a panel of kinases (in vitro HotSpot kinase assay, 33P-ATP, 1 μM ATP), other kinases; conditions: BMX wild-type, read-out: BMX-WT IC50
T3 sequence (P51813 1-675): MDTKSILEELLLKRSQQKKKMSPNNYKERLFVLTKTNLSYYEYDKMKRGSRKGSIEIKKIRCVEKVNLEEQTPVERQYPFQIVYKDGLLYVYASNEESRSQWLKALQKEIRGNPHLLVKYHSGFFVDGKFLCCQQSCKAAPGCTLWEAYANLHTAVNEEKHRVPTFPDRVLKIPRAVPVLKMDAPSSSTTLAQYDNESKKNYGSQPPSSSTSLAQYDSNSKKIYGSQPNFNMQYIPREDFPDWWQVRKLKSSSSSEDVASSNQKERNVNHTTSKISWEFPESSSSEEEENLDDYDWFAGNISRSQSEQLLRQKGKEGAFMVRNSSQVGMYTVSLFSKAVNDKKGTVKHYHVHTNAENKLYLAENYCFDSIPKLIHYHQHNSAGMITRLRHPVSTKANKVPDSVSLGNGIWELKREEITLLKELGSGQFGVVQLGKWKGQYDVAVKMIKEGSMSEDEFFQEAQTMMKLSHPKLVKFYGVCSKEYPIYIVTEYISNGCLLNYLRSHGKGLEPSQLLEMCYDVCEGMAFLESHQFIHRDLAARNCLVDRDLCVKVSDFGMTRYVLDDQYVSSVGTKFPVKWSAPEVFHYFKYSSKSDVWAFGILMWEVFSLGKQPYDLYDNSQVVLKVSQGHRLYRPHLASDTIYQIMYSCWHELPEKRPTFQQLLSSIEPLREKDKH
Procedure, shortened: as §1

[1] = method is one of A, B or C, not stated which, read-out: IC50 values against Btk
[2] = wild-type Btk, read-out: Btk-WT IC50

T1 sequence (Q06187 whole entry): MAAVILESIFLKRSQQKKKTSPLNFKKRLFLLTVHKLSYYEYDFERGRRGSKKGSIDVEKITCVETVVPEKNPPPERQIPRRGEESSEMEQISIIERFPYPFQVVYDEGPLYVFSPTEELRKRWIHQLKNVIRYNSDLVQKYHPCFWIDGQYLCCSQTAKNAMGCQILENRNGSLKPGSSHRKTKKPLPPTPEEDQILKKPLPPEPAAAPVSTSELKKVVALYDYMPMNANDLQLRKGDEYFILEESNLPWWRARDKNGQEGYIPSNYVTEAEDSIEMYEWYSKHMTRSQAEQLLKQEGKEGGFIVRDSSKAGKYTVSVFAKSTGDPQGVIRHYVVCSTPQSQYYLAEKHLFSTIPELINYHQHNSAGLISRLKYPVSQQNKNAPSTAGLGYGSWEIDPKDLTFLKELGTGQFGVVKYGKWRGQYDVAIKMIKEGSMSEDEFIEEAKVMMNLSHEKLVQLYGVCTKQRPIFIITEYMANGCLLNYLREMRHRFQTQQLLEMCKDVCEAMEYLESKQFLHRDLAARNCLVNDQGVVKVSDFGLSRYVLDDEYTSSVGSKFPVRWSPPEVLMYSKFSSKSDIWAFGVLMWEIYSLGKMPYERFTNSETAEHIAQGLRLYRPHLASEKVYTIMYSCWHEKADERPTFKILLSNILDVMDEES

Row | Structure (SMILES) | IC50 (Btk; [1]) | IC50 (Btk; [2]) | IC50 (TEC) | TEC/Btk (TEC) | IC50 (panel of kinases)
1 | C=CC(=O)N1CCC[C@@H](Nc2n[nH]c3nccc(-c4ccc(CNC(=O)c5cc(C(C)C)on5)c(F)c4)c23)[C@H]1C [Example 173, N-{[2-fluoro-4-(3-{[(2R,3R)-2-methyl-1-(prop-2-enoyl)piperidin-3-yl]amino}-1H-pyrazolo[3,4-b]pyridin-4-yl)phenyl]methyl}-5-(propan-2-yl)-1,2-oxazole-3-carboxamide] | < 10 nM | 0.104 nM | 9 nM | 83 | 6 nM
2 | CC(C)(C)c1nc(C(=O)NCc2ccc(-c3ccnc4[nH]nc(N[C@@H]5CCNC5)c34)cc2)no1 [Example 174, 5-tert-butyl-N-{[4-(3-{[(3R)-pyrrolidin-3-yl]amino}-1H-pyrazolo[3,4-b]pyridin-4-yl)phenyl]methyl}-1,2,4-oxadiazole-3-carboxamide] |  | 32.7 nM | > 10000 nM | >100 | > 10000 nM
3 | C=CC(=O)N1CC[C@@H](Nc2n[nH]c3nccc(-c4ccc(CNC(=O)c5noc(C(C)(C)C)n5)cc4)c23)C1 [Example 175, 5-tert-butyl-N-{[4-(3-{[(3R)-1-(prop-2-enoyl)pyrrolidin-3-yl]amino}-1H-pyrazolo[3,4-b]pyridin-4-yl)phenyl]methyl}-1,2,4-oxadiazole-3-carboxamide] | < 10 nM | 0.189 nM | 55 nM | 289 | 201 nM
4 | C=CC(=O)N1CC[C@@H](Nc2n[nH]c3nccc(-c4ccc(CNC(=O)c5cnc(C(C)C)o5)c(F)c4)c23)C1 [Example 176, N-{[2-fluoro-4-(3-{[(3R)-1-(prop-2-enoyl)pyrrolidin-3-yl]amino}-1H-pyrazolo[3,4-b]pyridin-4-yl)phenyl]methyl}-2-(propan-2-yl)-1,3-oxazole-5-carboxamide] | < 10 nM | 1.49 nM | 149 nM | 100 | 146 nM
5 | C=CC(=O)N1CC[C@@H](Nc2n[nH]c3nccc(-c4ccc(CNC(=O)c5cnc(N(C)C)o5)c(F)c4)c23)C1 [Example 177, 2-(dimethylamino)-N-{[2-fluoro-4-(3-{[(3R)-1-(prop-2-enoyl)pyrrolidin-3-yl]amino}-1H-pyrazolo[3,4-b]pyridin-4-yl)phenyl]methyl}-1,3-oxazole-5-carboxamide] | < 10 nM | 3.91 nM | 99 nM | 25 | 43 nM
6 | CC(C)(C)c1noc(C(=O)NCc2ccc(-c3ccnc4[nH]nc(N5CCC(N)CC5)c34)cc2F)n1 [Example 178, N-({4-[3-(4-aminopiperidin-1-yl)-1H-pyrazolo[3,4-b]pyridin-4-yl]-2-fluorophenyl}methyl)-3-tert-butyl-1,2,4-oxadiazole-5-carboxamide] | < 10 nM | 0.598 nM | 722 nM | 1207 | 1180 nM
7 | C=CC(=O)NC1CCN(c2n[nH]c3nccc(-c4ccc(CNC(=O)c5nc(C(C)(C)C)no5)c(F)c4)c23)CC1 [Example 179, 3-tert-butyl-N-[(2-fluoro-4-{3-[4-(prop-2-enamido)piperidin-1-yl]-1H-pyrazolo[3,4-b]pyridin-4-yl}phenyl)methyl]-1,2,4-oxadiazole-5-carboxamide] | < 10 nM | 0.0959 nM | 220 nM | 2294 | 305 nM
8 | CC(C)(C)c1nc(C(=O)NCc2ccc(-c3ccnc4[nH]nc(N[C@@H]5CCNC5)c34)cc2F)co1 [Example 180, 2-tert-butyl-N-{[2-fluoro-4-(3-{[(3R)-pyrrolidin-3-yl]amino}-1H-pyrazolo[3,4-b]pyridin-4-yl)phenyl]methyl}-1,3-oxazole-4-carboxamide] |  | 23.8 nM | 7180 nM | 302 | > 10000 nM
